In a melting point compilation (Tetko et al.):

| Structure (SMILES) | melting point |
| --- | --- |
| Cc1cc(C(=O)NN)nn1C(C)(C)C | 85 to 88 °C |
| NS(=O)(=O)Cc1ccccc1 | 103 °C |
| Clc1ccc2[nH]c(C(Cl)(Cl)Cl)nc2c1 | 223 to 229 °C |
| CCCCCCCCC=CCCCCCCCCO | 6 °C |
| CC(C)n1c(C(F)(F)F)nc2cc(C(=O)Cl)ccc21 | 102 °C |
| C[Si](C)(C)c1ccc([Si](C)(C)C)cc1 | 92 to 96 °C |
| O=S(=O)(Cl)c1csc2ccccc12 | 86 to 88 °C |
| CC(C)(C)C(O)C(Oc1ccc(-c2ccccc2)cc1)n1cncn1 (single isomer, unassigned; stereoisomer a) | 139 °C |
| CC(=O)c1csc(-c2ccc(C(F)(F)F)cc2)n1 | 66 °C |
| O=[N+]([O-])OC1COC2C(O)COC12 (stereo not given) | 88 to 93 °C |
| O=C1OC2(CCCCC2)OC1c1ccccc1 (stereo not given) | 87 °C |
| CC1(C)CCCCC1O (stereo not given) | 8 °C |
| O=Cc1ccc(OP(=S)(Oc2ccc(C=O)cc2)Oc2ccc(C=O)cc2)cc1 | 115 to 119 °C |
| O=C(O)C1OC(OCC(Cl)(Cl)Cl)C(O)C(O)C1O (stereo not given) | 142 °C |
| CCNC(C)CC (stereo not given) | -104 °C |
| CN(C)NC(=O)CCC(=O)O | 158 to 162 °C |
| BrC(Br)(Br)c1ccc2cc3ccc(C(Br)(Br)Br)nc3cc2n1 | 190 °C |
| CCCCCCCC=CC(=O)O | 12 °C |
| CC(C)(Oc1ccc(C2CC2(Cl)Cl)cc1)C(=O)O (stereo not given) | 115 °C |
| CCc1ccc(C#Cc2ccc(C)cc2)cc1 | 73 °C |
| O=CNC1CC=CCC(NC=O)CC=CC1 (stereo not given) | 289 to 290 °C |
| Cc1ccc(-c2csc(/C(C#N)=N\Nc3ccc(O)cc3)n2)cc1 | 252 °C |
| CC(=O)Nc1ccc(CC(=O)O)cc1 | 173 °C |
| CC1(C)C(C=C(Cl)C(F)(F)F)C1C(=O)OC(C#N)c1cccc(Oc2ccccc2)c1 (stereo not given) | 55.6 °C |
| Nc1c([N+](=O)[O-])ccc2ncccc12 | 272 to 273 °C |

| Structure (SMILES) | melting point |
| --- | --- |
| CN1CCOc2cc(C(=O)O)cnc21 | 232 to 280 °C |
| CC1=CC(=C(C#N)C#N)C=C(C=Cc2ccc(N(C)C)cc2)O1 | 212 °C |
| CCC1CC(OP(=O)(O)O)CC(C)(C)N1O (stereo not given) | 270 °C |
| O=[N+]([O-])c1cc([N+](=O)[O-])c(C(Cl)C(Cl)c2ccccc2)cc1/C=C\c1ccccc1 (stereo not given) | 181 °C |
| COC(=O)c1ccc(C(=O)OC)c(C(=O)OC)c1 | 39 °C |
| Fc1cc(Br)ccc1I | 48 °C |
| COc1cc(Br)c(CC(=O)O)cc1OC | 94 to 96 °C |
| O=C(OCC(=O)N1CCCCC1)c1ccccc1 | 88 °C |
| CC(=O)OC1CCC2C3CCC4=CC(=O)CCC4(C)C3CCC12C (stereo not given) | 140 °C |
| c1ccc(C2(c3ccccc3)CC2C2=NCCN2)cc1 (stereo not given) | 104 °C |
| O=C(Nc1ccccc1)c1cc2ccccc2cc1O | 248 °C |
| Cc1cnc(Cl)nc1Cl | 26 °C |
| Cc1cc(O)nc2ccccc12 | 226 °C |
| Nc1oc2ccc(Cl)cc2c(=O)c1C=O | 300 °C |
| CCCCCCCCCCCCCCCCCCCC(=O)OCC | 50 °C |
| CCOC(=O)N/C=C1/C(=O)C2(C)CCC1C2(C)C (stereo not given) | 162 °C |
| Nc1c(S/C=C/Cl)ccc2c1C(=O)c1ccccc1C2=O | 180 °C |
| CCOC(=O)C1=C(C)OC(N)=C(C#N)C1c1ccccc1 (stereo not given) | 189 to 190 °C |
| Cc1nc(-c2cccc(Br)c2)no1 | 81 to 83 °C |
| CC(C)C(C(=O)O)C(=O)O | 90 to 93 °C |
| CC(O)C#N (stereo not given) | -40 °C |
| c1ccc(C(c2ccccc2)=P(c2ccccc2)(c2ccccc2)c2ccccc2)cc1 | 169 to 171 °C |
| Ic1ccc(Cn2cncn2)cc1 | 82 to 84 °C |
| CC(C)C[C@@H](CC#N)NC(=O)OC(C)(C)C | 75 to 77 °C |
| C[C@]12C=C[C@H](O1)[C@H]1C(=O)OC(=O)[C@H]12 | 69 to 70 °C |

| Structure (SMILES) | melting point |
| --- | --- |
| Ic1cc2ccccc2c2ccccc12 | 92 °C |
| O=[N+]([O-])c1cccc(-c2nnc3n2NCS3)c1 | 200 °C |
| COc1ccc(/N=N/c2c(N)nn3c(-c4ccccc4)cc(=O)[nH]c23)cc1 | 278 °C |
| O=C(O)c1ccccc1P(c1ccccc1)c1ccccc1 | 178 °C |
| C[C@]12CCC(=O)C=C1C(=O)C[C@@H]1[C@@H]2CC[C@]2(C)C(=O)CC[C@@H]12 | 222 °C |
| c1cc(-c2nnn[nH]2)ccn1 | 265 to 267 °C |
| Cc1ccc(C#N)c(=O)[nH]1 | 293 to 295 °C |
| CC1CC(C)C(=O)C(C(O)CC2CC(=O)NC(=O)C2)C1 (stereo not given) | 119 °C |
| O=C(O)c1sc(Br)c2c1OCCO2 | 150 °C |
| O=C1Nc2ccc(Cl)cc2C1=O | 242 to 250 °C |
| C=CCNC(=S)NN | 93 to 96 °C |
| CC(C=CC=CC(C)=CC=CC(C)=CC=C1C(C)=CC(=O)CC1(C)C)=CC=CC(C)=CC=C1C(C)=CC(=O)CC1(C)C | 219 °C |
| Cn1ncc(C(=O)Cl)c1Cl | 50 to 52 °C |
| Cc1cc(O)c(C)c(C)c1C | 85.3 °C |
| CC(=O)NC1C(O)OC(CO)C(O)C1OC(C)C(=O)O (stereo not given) | 125 °C |
| O=CC(F)(F)C(F)(F)C(F)(F)C(F)(F)C(F)(F)C(F)(F)C(F)(F)C(F)(F)Cl | 36 to 38 °C |
| CC1(C)C(=O)OC2=C(CCCC2=Cc2ccccc2)C1c1ccccc1 (stereo not given) | 155 to 157 °C |
| CC1N=C(S)N2C(C)N=C(S)N12 (stereo not given) | 182 to 184 °C |
| FC(F)(F)c1ccc(Br)nc1 | 46 to 47 °C |
| Cc1c(-c2ccccc2)sc2ncnc(Cl)c12 | 133 to 135 °C |
| O=C(O)c1cnccc1C(F)(F)F | 150 °C |
| Oc1ccc(S)cc1 | 34 °C |
| Cc1cc(O)c(Cl)c(C)c1Cl | 95.5 °C |
| Fc1ccc(C(c2ccc(F)cc2)C(Cl)(Cl)Cl)cc1 | 44.5 °C |
| CC(C)(O)C#CC#CC(C)(C)O | 132 to 134 °C |

| Structure (SMILES) | melting point |
| --- | --- |
| O=S(=O)(O)c1ccc(N=Nc2ccc(N=Nc3ccc(S(=O)(=O)O)cc3)cc2)cc1 | 157 °C |
| O=C(N=C=S)c1cccc([N+](=O)[O-])c1 | 93 to 95 °C |
| COC(=O)c1c(C)n[nH]c1-c1cc(C)on1 | 168 to 170 °C |
| Cc1ccc(S(=O)(=O)Nc2cc(N)c([N+](=O)[O-])cc2NS(=O)(=O)c2ccc(C)cc2)cc1 | 165 °C |
| COC(=O)c1cc(OC)c(OC)cc1N | 129 °C |
| O=C(Nc1ccc(I)cc1)C(C(F)(F)F)C(F)(F)F | 235 to 237 °C |
| O=C(Cl)c1sc(-c2ccccc2)nc1-c1ccccc1 | 139 °C |
| COC(=O)c1ccccc1SCC(C)=O | 60 to 61 °C |
| O=Cc1cn2ccccc2n1 | 78 to 79 °C |
| COc1cc2c(cc1OC)C(C)=NCC2 | 103 to 106 °C |
| O=C(O)c1ccc(Br)c(F)c1 | 212 °C |
| O=[N+]([O-])c1ccc(S(=O)(=O)O)c([N+](=O)[O-])c1 | 108 °C |
| NC(=S)c1cccnc1 | 185 to 190 °C |
| COc1c(F)cc(N)cc1Br | 72 °C |
| N=C(N)NCC1COc2ccccc2O1 (stereo not given) | 164 °C |
| CCCCCCCCCCCCCCCc1cccc(O)c1O | 59.5 °C |
| CCc1ccc(C(c2ccc(CC)o2)c2cc3c(cc2[N+](=O)[O-])OCCO3)o1 | 86 °C |
| O=S(=O)(O)c1ccc(-c2ccc(S(=O)(=O)O)cc2)cc1 | 72.5 °C |
| CC(=O)OCC1=CC2OC(=O)C3=COC(OC4OC(CO)C(O)C(O)C4O)C1C32 (stereo not given) | 132 °C |
| N#CC(=Cc1ccccc1Cl)c1nc2ccccc2s1 | 139 °C |
| Cc1c(C)c(C)c(CCl)c(CCl)c1C | 135 °C |
| COc1cccc(CNC(N)=S)c1 | 91 to 93 °C |
| O=[N+]([O-])c1ccc(S(=O)(=O)N2CCCC2)cc1 | 151 to 153 °C |
| O=C(NCCCCCCCCNC(=O)C(Cl)Cl)C(Cl)Cl | 118 to 120 °C |
| CCN(CC)C(=O)N1CCN(C)CC1 | 48 °C |

| Structure (SMILES) | melting point |
| --- | --- |
| COC(=O)c1ccccc1NC(C)=O | 97 to 101 °C |
| O=C(c1ccccc1)C(Br)c1ccccc1 (stereo not given) | 53 to 58 °C |
| CC(=O)OC1CC[C@H]2[C@@H]3[C@H](C)CC4CC(=O)CC[C@]4(C)[C@H]3CC[C@]12C (stereo not given in full) | 142 °C |
| O=[N+]([O-])c1c(O)cc(O)cc1O | 189 °C |
| FC(F)(F)C(Cl)(Cl)Cl | 14.2 °C |
| O=C(O)CCCCCCCC(O)C(O)CCCCCCO (stereo not given) | 100 °C |
| O=C(CCl)Oc1ccccc1 | 44.5 °C |
| CCOC(=O)CC1Sc2ccccc2NC1=O (stereo not given) | 126 to 128 °C |
| Cc1c(C)c(CBr)c(CBr)c(CBr)c1CBr | 205 °C |
| CC(C)(C(=O)N1C(=O)C=CC1(C)C)C(=O)N1C(=O)C=CC1(C)C | 128 °C |
| Cn1ncc2c(NCCNC3=CC(=O)c4ccccc4C3=O)ncnc21 | 257 °C |
| OCc1ccccc1O[C@@H]1O[C@H](CO)[C@@H](O)[C@H](O)[C@H]1O | 198 to 200 °C |
| COC(=O)CSc1cc(N=c2sc(=O)n3n2CCCC3)c(F)cc1Cl | 106 °C |
| Cc1cc(C)n(C(N)=O)n1 | 113 to 115 °C |
| CC(=O)c1cc(C(C)(C)C)c(O)c(C(C)(C)C)c1 | 147 °C |
| Cn1ccc(C#N)n1 | 41.5 to 45 °C |
| CN(C)C(=O)Nc1ccc(-n2nc(C(C)(C)C)oc2=O)c(Cl)c1 | 193 °C |
| CC1C(=O)CCC2C1(C)CCC1C2(C)CCC2(C)C3CC(C)(C)CCC3(C)CCC12C (stereo not given) | 263 °C |
| CC1(C)OC(C)(C(O)(Cc2ccccc2)Cc2ccccc2)CCC1C(=O)O (stereo not given) | 137 to 138 °C |
| Oc1ccc(C2SCCS2)cc1 | 118 °C |
| CC(=O)Nc1ccc(C#N)cc1OC(F)(F)F | 118 to 120 °C |
| O=C1NC(=O)C(=Cc2ccc(-c3ccccc3Br)o2)C(=O)N1 | 255 °C |
| NC(=O)NCCC[C@H](N)C(=O)O | 236 °C |
| Cc1cc(F)ccc1CC#N | 26 °C |
| FC1(F)C(F)(F)C(F)(F)C2(F)C(F)(F)C(F)(F)C(F)(F)C(F)(F)C2(F)C1(F)F (stereo not given) | -10 °C |
